The values that follow come from patent US20240415800A1, “DOPA AND CAFFEIC ACID ANALOGS AS NOVEL GCPII INHIBITORS” (The Johns Hopkins University, priority 2021, published 2024).

Values joined by “and” are separate entries in the source; they are usually repeats but may differ in a detail not shown here. Equal entries are not always repeated. “Also recorded” adds a separate entry of the source. Where two headings read alike, the source gives them in different places.

Data set [1] concerns the target T1, Recombinant human GCPII enzyme (Homo sapiens (Human), UniProt Q04609). Briefly: GCPII activity assay (IC50, radiolabelled NAAG hydrolysis). The data set is classed as biochemical. The conditions noted are these: for GCPII inhibitory potency (in words): SAR of L-DOPA analogs.
Data set [2] can be described thus: Pharmacokinetics of D-DOPA in mouse plasma and brain (IV, PO, IN; Example 1). The note with it: for Kp: brain/plasma, read-out: AUCBrain/Plasma (brain penetration index). The data set is classed as in vivo, CD1 mice.
Data set [3] concerns the target GCPII activity in the brain (Mus musculus (Mouse), UniProt O35409). The experiment in a line: GCPII target engagement: GCPII activity in brain after dosing. The data set is classed as in vivo, CD1 mouse.
The nature of data set [4]: Time-dependent PK of D-DOPA with or without sodium benzoate (Example 2). The data set is classed as in vivo, CD-1 mice. The method, then:
All of the formulations were freshly prepared prior to the dosing. […] Tissue and plasma collection were carried out as described above. […] Van […] et al., 2020; Wang et al., 2015. While D-/L-DOPA required derivatization with acetic anhydride, caffeic acid was analyzed using a single step protein precipitation method. […] Plasma and brain tissue samples were processed by matching the dilutions of calibration standards of the respective tissue. […] The solutions were vortexed for 15 secs and then allowed to sit at room temperature for 45 mins. These mixtures were vortexed again for 10 sec and centrifuged at 10,000 g for 10 mins to collect the supernatant. A 50 μL aliquot of the supernatant was transferred to 250 μL polypropylene autosampler vials sealed with Teflon caps. 2 μL of the sample was injected into the LC/MS/MS system for analysis. Chromatographic analysis was performed using Thermo Scientific Vanquish UPLC system consisting of an analytical pump and an autosampler coupled with a […] spectrometer. For all analytes, the mobile phase used for the chromatographic separation composed of 0.1% formic acid in acetonitrile and 0.1% formic acid in water delivered as a gradient while pumping a flow rate of 0.400 mL/min. […] The analyte was monitored using ThermoScientific […] triple-quadrupole mass-spectrometric detector equipped with an electrospray interface, and operated in negative ion mode. The instrument was controlled by Thermo Scientific Xcalibur (version 4.2.47) software. […] Plasma concentrations (nmol/mL) and brain tissue concentrations (nmol/g) were determined and plots of mean plasma or brain concentrations versus time were constructed.

Data set [5] in a line: Mouse two-point oral pharmacokinetic screening. Set-up: species or system CD-1 mice. The conditions noted are these: in vivo, 50 mg/kg. The method, then: Male CD-1 mice between 25-30 g were obtained from Harlan and maintained on a 12 h light-dark cycle with ad libitum access to food and water. […] All of the formulations were freshly prepared prior to the dosing. […] For the collection of plasma and brain tissue, animals were euthanized with CO2, and blood samples were collected in heparinized microtubes by cardiac puncture. Brains were dissected and immediately flash frozen (-80° C.). […] Van […] et al., 2020; Wang et al., 2015. While D-/L-DOPA required derivatization with acetic anhydride, caffeic acid was analyzed using a single step protein precipitation method. […] Plasma and brain tissue samples were processed by matching the dilutions of calibration standards of the respective tissue. […] The solutions were vortexed for 15 secs and then allowed to sit at room temperature for 45 mins. These mixtures were vortexed again for 10 sec and centrifuged at 10,000 g for 10 mins to collect the supernatant. A 50 μL aliquot of the supernatant was transferred to 250 μL polypropylene autosampler vials sealed with Teflon caps. 2 μL of the sample was injected into the LC/MS/MS system for analysis. […] Then, 2 μL of the sample was analyzed using LC/MS/MS system as mentioned above. Plasma concentrations (nmol/mL) and brain tissue concentrations (nmol/g) were determined and plots of mean plasma or brain concentrations versus time were constructed.

A short description of data set [6]: In vitro metabolic stability in mouse plasma and brain homogenate. The conditions noted are these: 10 μM, 1 h. The data set is classed as in vitro ADME. On the procedure:
Zimmermann et al., 2018. For the brain homogenates, washed tissues were diluted 10-fold in 0.1 M potassium phosphate buffer and homogenized using a probe sonicator. Crude homogenate and plasma were aliquoted to 1 mL and spiked with a final assay concentration of 10 μM of the respective catechol followed by incubation in an orbital shaker at 37° C. for 1 h (in triplicate). An aliquot from each incubated homogenate was quenched with three volumes of acetonitrile containing the internal standard (IS; losartan: […]) at predetermined time points (0, 30, 60 min). Samples were vortex-mixed for 30 secs and centrifuged at 10,000×g for 10 min at 4° C.
Disappearance of respective catechol was monitored on a Dionex Ultimate 3000 ultra-high-performance LC system coupled with Q Exactive Focus orbitrap mass spectrometer (Thermo Fisher Scientific Inc., Waltham MA). The separation of analytes was achieved using the Agilent Eclipse Plus column (100×2.1 mm i.d.; maintained at 35° C.) packed with a 1.8 μm C18 stationary phase. The mobile phase consisted of 0.1% formic acid in water and 0.1% formic acid in acetonitrile. Pumps were operated at a flow rate of 0.4 mL/min for 9 min using gradient elution. […] Quantification of the compounds was performed in the full-scan mode (from m/z 50 to 1600) by comparing t=0 samples with t=30- and 60-min samples.

Data set [7] can be described thus: Solubility of D-DOPA in intranasal dosing vehicle. The data set is classed as physicochemical.
The target of data set [8] is T1, Recombinant human GCPII enzyme. The note with it: NAAG saturation, D-DOPA 0-400 nM.
For data set [9] the target is unchanged. Briefly: biochemical.
[10] abbreviates: Table 1, catechol scaffolds for GCPII inhibition.
Where [11] appears, read: Table 2-1, human recombinant GCPII.
Where [12] appears, read: PO 50 mg/kg + sodium benzoate 400 mg/kg IP, brain.

Broadly, the IC50 is the concentration that gives 50% inhibition. For orientation: Tmax means the time from dosing to the highest level. In general, bioavailability refers to the share of a dose that reaches the circulation, judged against a reference dose that is usually intravenous. A word on the Ki: it is a measure of affinity in units of concentration, obtained from inhibition or displacement.

T1 sequence (Q04609 whole entry): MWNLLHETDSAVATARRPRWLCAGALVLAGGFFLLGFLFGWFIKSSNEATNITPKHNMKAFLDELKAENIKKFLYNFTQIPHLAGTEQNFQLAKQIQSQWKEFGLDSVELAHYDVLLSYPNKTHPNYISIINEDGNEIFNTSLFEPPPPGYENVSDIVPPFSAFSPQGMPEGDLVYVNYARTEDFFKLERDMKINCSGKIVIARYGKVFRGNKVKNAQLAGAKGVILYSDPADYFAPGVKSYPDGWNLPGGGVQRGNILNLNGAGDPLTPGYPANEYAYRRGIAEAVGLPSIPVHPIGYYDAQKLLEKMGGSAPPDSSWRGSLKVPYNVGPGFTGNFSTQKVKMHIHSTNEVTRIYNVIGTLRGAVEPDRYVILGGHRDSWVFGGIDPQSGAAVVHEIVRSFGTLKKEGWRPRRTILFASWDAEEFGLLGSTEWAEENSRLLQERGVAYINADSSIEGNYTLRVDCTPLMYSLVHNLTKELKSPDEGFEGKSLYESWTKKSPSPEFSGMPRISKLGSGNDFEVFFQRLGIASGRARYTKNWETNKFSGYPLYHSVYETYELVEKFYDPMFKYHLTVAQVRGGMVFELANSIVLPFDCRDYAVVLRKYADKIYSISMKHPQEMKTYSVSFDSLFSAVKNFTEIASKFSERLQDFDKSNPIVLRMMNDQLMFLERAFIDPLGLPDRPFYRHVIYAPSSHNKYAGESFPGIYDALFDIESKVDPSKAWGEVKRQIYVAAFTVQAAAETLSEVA
Sequence of GCPII activity in the brain (O35409 whole entry): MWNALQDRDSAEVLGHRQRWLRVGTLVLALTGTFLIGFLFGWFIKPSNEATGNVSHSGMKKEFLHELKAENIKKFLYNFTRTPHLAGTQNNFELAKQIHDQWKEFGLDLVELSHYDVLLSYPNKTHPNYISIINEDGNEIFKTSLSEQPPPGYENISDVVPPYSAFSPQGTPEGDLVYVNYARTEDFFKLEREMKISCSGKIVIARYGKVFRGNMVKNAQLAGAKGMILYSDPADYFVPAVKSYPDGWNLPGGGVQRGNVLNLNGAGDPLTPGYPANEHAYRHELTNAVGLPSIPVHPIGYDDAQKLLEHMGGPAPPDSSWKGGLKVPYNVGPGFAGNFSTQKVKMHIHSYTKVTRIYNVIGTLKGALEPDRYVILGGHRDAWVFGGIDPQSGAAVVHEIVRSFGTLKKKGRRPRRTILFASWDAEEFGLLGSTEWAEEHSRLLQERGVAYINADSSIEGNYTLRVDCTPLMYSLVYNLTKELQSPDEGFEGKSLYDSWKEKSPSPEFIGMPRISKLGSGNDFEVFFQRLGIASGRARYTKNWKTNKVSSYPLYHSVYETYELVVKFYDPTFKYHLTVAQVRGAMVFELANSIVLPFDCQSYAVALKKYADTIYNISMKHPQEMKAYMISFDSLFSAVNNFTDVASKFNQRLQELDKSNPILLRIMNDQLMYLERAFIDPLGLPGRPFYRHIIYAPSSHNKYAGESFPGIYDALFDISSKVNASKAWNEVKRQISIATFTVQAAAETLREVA

In the case of `O=C(O)/C=C/c1ccc(O)c(O)c1` [Caffeic acid], the IC50 amounted to 300 nM in [1] (GCPII) and 100 nM in data set [1] (setting [10]). Further, the “GCPII inhibitory potency (in words)” value in data set [1] is “sub-micromolar potencies”.

As for `N[C@@H](Cc1ccc(O)cc1)C(=O)O` [Compound 2-2, Tyr], the “GCPII inhibitory potency (in words)” value in data set [1] was “substantial loss of potency”. In addition, the IC50 in [1] (setting [11]) worked out at 100000 nM.

Turning to `COc1ccc(C[C@H](N)C(=O)O)cc1OC` [Compound 2-3], the “GCPII inhibitory potency (in words)” value in data set [1] is listed as “substantial loss of potency”. Further, the IC50 in [1] (setting [11]) is > 100000 nM.

Turning to `NC(Cc1ccc(=O)n(O)c1)C(=O)O` (stereo not drawn) [Compound 2-4], in [1], the “GCPII inhibitory potency (in words)” value is “complete loss of potency”. In addition, the IC50 in [1] (setting [11]) was > 100000 nM.

Take `C[C@](N)(Cc1ccc(O)c(O)c1)C(=O)O` [Compound 2-5]: the “GCPII inhibitory potency (in words)” value in [1] is “loss of potency”. The IC50 in data set [1] (setting [11]) is > 100000 nM.

Regarding `CC(=O)N[C@@H](Cc1ccc(O)c(O)c1)C(=O)O` [Compound 2-6], in data set [1], the “GCPII inhibitory potency (in words)” value was “loss of potency”. Further, the IC50 in data set [1] (setting [11]) was 20000 nM.

Turning to `NCCc1ccc(O)c(O)c1` [Compound 2-7, Dopamine], the “GCPII inhibitory potency (in words)” value in data set [1] is reported as “loss of potency”. Also, the IC50 in data set [1] (setting [11]) is > 100000 nM.

Consider `O=C(O)CCc1ccc(O)c(O)c1` [Compound 2-8], for which the IC50 in data set [1] (setting [11]) was 4000 nM. Also, in [1] (relative to L-DOPA), the “decrease in inhibitory potency” value was 6.7 fold.

Consider `N[C@H](Cc1ccc(O)c(O)c1)C(=O)O` [D-DOPA, D-3,4-dihydroxyphenylalanine], for which, in data set [1] (GCPII), the IC50 came out at 200 nM. For the same molecule, the “GCPII inhibitory potency (in words)” value in data set [1] is “sub-micromolar potencies”. Moreover, the Kp in data set [2] (CD1, mouse, other: intranasal, 3.4 mg/kg, IN 3.4 mg/kg) was 0.051; in data set [2] (CD1, mouse, po, 30 mg/kg, PO 30 mg/kg) it was < 0.05; in data set [4] (CD-1, mouse, brain/plasma, PO 50 mg/kg + sodium benzoate 400 mg/kg IP, read-out: brain penetration index) it was 0.03. Moreover, the Cmax was 4.45 ± 0.971 µM in [2] (CD1, mouse, inhaled or intranasal, IN 3.4 mg/kg, plasma, read-out: Cmax); 43.1 ± 2.58 µM in data set [2] (CD1, mouse, PO 30 mg/kg, plasma, read-out: Cmax); 0.102 ± 0.00823 nmol/g in [2] (IN 3.4 mg/kg, brain); 0.472 ± 0.124 nmol/g in [2] (PO 30 mg/kg, brain); 61.1 ± 5.09 µM in [2] (mouse, IV 10 mg/kg, plasma, CD1 mice, read-out: Cmax); 1.74 µM in data set [4] (CD-1, mouse, PO 50 mg/kg monotherapy, brain, read-out: Cmax). Besides, the Cmax in data set [4] (setting [12]) was 3.2 nmol/g and 3.20 nmol/g; in data set [4] (PO 50 mg/kg + sodium benzoate 400 mg/kg IP, plasma, read-out: Cmax) it was 151 µM; in [4] (PO 50 mg/kg monotherapy, brain) it was 1.74 nmol/g. In addition, the AUC0-t stood at 2.7 ± 0.508 µM·h in [2] (CD1, mouse, plasma, inhaled or intranasal, 3.4 mg/kg, IN 3.4 mg/kg, plasma, read-out: AUC0-t); 30.5 ± 2.04 µM·h in data set [2] (CD1, mouse, plasma, iv, 10 mg/kg, IV 10 mg/kg, plasma, read-out: AUC0-t); 0.139 ± 0.0268 nmol·h/g in data set [2] (IN 3.4 mg/kg, brain); 1.09 ± 0.103 nmol·h/g in data set [2] (PO 30 mg/kg, brain); 32.92 ± 0.731 µM·h in data set [2] (PO 30 mg/kg, plasma). Moreover, the Tmax in [2] (CD1, mouse, plasma, iv, 10 mg/kg, IV 10 mg/kg, plasma, read-out: Tmax) is ≤ 0.0833 h; in data set [2] (CD1, mouse, plasma, iv, 10 mg/kg, IV 10 mg/kg, plasma, read-out: Tmax (h)) it was 0.0833 h; in data set [2] (IN 3.4 mg/kg, plasma), 0.250 h; in data set [4] (PO 50 mg/kg monotherapy, brain), 30 min. Also, the bioavailability in [2] (CD1, mouse, plasma, PO 30 mg/kg vs IV 10 mg/kg, read-out: Bioavailability (% F)) is 36%. Further, the “GCPII activity in brain (cortex)” value in [3] (PO 30 mg/kg, 1 h post dose) is listed as “significant inhibition of GCPII activity”. Moreover, the “GCPII activity in brain” value in data set [3] (PO 50 mg/kg + sodium benzoate 400 mg/kg IP, 30 min) is “significantly outperformed D-DOPA alone; also recorded: significant inhibition of GCPII activity; also recorded: significantly outperformed D-DOPA mono-therapy”; in data set [3] (PO 50 mg/kg monotherapy, 30 min, vs untreated), “significant inhibition of GCPII activity”; in data set [3] (intranasal dosing), “insufficient exposures to the brain to affect GCP II activity”. The AUC came to 30.5 µM·h in [4] (CD-1, mouse, plasma, iv, 10 mg/kg, IV 10 mg/kg, plasma, read-out: AUCIV); 185 µM·h in data set [4] (CD-1, mouse, plasma, oral, PO 50 mg/kg + sodium benzoate 400 mg/kg IP, plasma, read-out: AUCPlasma); 185 µM·h in [4] (CD-1, mouse, plasma, po, 50 mg/kg, PO 50 mg/kg + sodium benzoate 400 mg/kg IP, plasma, read-out: AUCPlasma); 72.7 µM·h in [4] (CD-1, mouse, plasma, po, 50 mg/kg, PO 50 mg/kg monotherapy, plasma, read-out: AUCPO-plasma). In addition, in [4] (PO 50 mg/kg + sodium benzoate 400 mg/kg IP), the “time brain levels stayed >IC50 value of 0.2 μM” value is reported as “over 3 h”. The AUCBrain in [4] (setting [12]) stood at 5.48 nmol·h/g. In [4] (PO 50 mg/kg monotherapy), the “time brain concentrations were >IC50” value was “up to 1 h”. The molecule also yielded an AUCPO-Brain in [4] (PO 50 mg/kg monotherapy, brain) of 2.42 nmol·h/g. Moreover, the “oral bioavailability (AUCPO/IV)” value in data set [4] (PO 50 mg/kg vs IV 10 mg/kg) is 47.7%. Moreover, the “enhancement in both plasma and brain exposures” value in data set [4] (combination with sodium benzoate vs D-DOPA alone) is reported as > 200%. In addition, in data set [5], the “plasma and brain exposure (in words)” value was “higher plasma and brain exposure”. Also, in data set [6], the “metabolic stability (in words)” value is given as “good metabolic stability; also recorded: superior in vitro stability”. Moreover, the solubility in vehicle result in [7] is reported as “poor solubility”. The mode of inhibition entry in [8] is on record as “noncompetitive, allosteric inhibitor of GCPII”. Further, the Ki in data set [9] was ~400 nM.

Regarding `N[C@@H](Cc1ccc(O)c(O)c1)C(=O)O` [L-DOPA], in data set [1], the “GCPII inhibitory potency (in words)” value is reported as “sub-micromolar potencies; also recorded: submicromolar inhibitor of GCPII”. Further, the IC50 in data set [1] (setting [10]) was 400 nM; in data set [1] (setting [11]) it was 600 nM.
